Experimental data as given in ChEMBL document CHEMBL4265948, “A cardiac glycoside HTF-1 isolated from Helleborus thibetanus Franch displays potent in vitro anti-cancer activity via caspase-9, MAPK and PI3K-Akt-mTOR pathways” (Eur J Med Chem, 2018).
pIC50: −log10 of the molar value. Active and inactive are the calls of the source. The rule behind the calls is not given here.

How the values were obtained:
HeLa [1] = assay: Induction of apoptosis in human HeLa cells assessed as early apoptotic cells at 500 nM after 24 hrs by Annexin-V-FITC/propidium iodide staining based flow cytometry (reference value: 3.08%); assay type: functional
HeLa [2] = assay: Down regulation of FEN1 expression in human HeLa cells at 50 to 200 nM after 24 hrs by Western blot analysis; assay type: functional, cell-based
HeLa [3] = assay: Induction of morphological changes in human HeLa cells assessed as cell membrane blebbing at 200 to 500 nM after 24 hrs by scanning electron microscopic analysis; assay type: functional, cell-based
HeLa [4] = assay: Induction of apoptosis in human HeLa cells assessed as late apoptotic cells at 200 nM after 24 hrs by Annexin-V-FITC/propidium iodide staining based flow cytometry (reference value: 11.1%); assay type: functional
HepG2 [5] = assay: Cytotoxicity activity against human HepG2 cells after 48 hrs by MTT assay; assay type: functional, cell-based; conditions: HepG2, 48 h
HeLa [6] = assay: Antiproliferative activity against human HeLa cells assessed as inhibition of cell proliferation at 100 to 200 nM after 24 hrs by Edu/Hoechst 33342 staining based fluorescence microscopic analysis; assay type: functional
HeLa [7] = assay: Antiinvasive activity in human HeLa cells at 50 nM after 48 hrs by crystal violet staining based microscopic analysis; assay type: functional, cell-based
HeLa [8] = assay: Induction of morphological changes in human HeLa cells assessed as chromatin condensation at 200 to 500 nM after 24 hrs by Hoechst 33342 staining based fluorescence microscopic analysis; assay type: functional, cell-based
[9] = target: Mitogen-activated protein kinase; ERK1/ERK2 (Homo sapiens) (UniProt P27361+P28482); assay: Inhibition of ERK1/2 phosphorylation in human HeLa cells at 50 to 200 nM after 24 hrs by Western blot analysis; assay type: cell-based
HeLa [10] = assay: Induction of apoptosis in human HeLa cells assessed as early apoptotic cells at 100 nM after 24 hrs by Annexin-V-FITC/propidium iodide staining based flow cytometry (reference value: 3.08%); assay type: functional
[11] = target: c-Jun N-terminal kinase, JNK (Homo sapiens) (UniProt P45983+P53779+P45984); assay: Activation of JNK phosphorylation in human HeLa cells after 24 hrs by Western blot analysis; assay type: cell-based
HeLa [12] = assay: Induction of morphological changes in human HeLa cells assessed as thinner microvilli at 200 to 500 nM after 24 hrs by scanning electron microscopic analysis; assay type: functional, cell-based
HeLa [13] = assay: Induction of morphological changes in human HeLa cells assessed as protrusions in cell membrane at 200 to 500 nM after 24 hrs by scanning electron microscopic analysis; assay type: functional, cell-based
HeLa [14] = assay: Induction of apoptosis in human HeLa cells assessed as viable cells at 200 nM after 24 hrs by Annexin-V-FITC/propidium iodide staining based flow cytometry (reference value: 85.8%); assay type: functional; conditions: read-out: Activity
HeLa [15] = assay: Induction of morphological changes in human HeLa cells assessed as DNA fragmentation at 200 to 500 nM after 24 hrs by Hoechst 33342 staining based fluorescence microscopic analysis; assay type: functional, cell-based
HeLa [16] = assay: Induction of apoptosis in human HeLa cells assessed as early apoptotic cells at 200 nM after 24 hrs by Annexin-V-FITC/propidium iodide staining based flow cytometry (reference value: 3.08%); assay type: functional
HeLa [17] = assay: Cytotoxicity activity against human HeLa cells after 48 hrs by MTT assay; assay type: functional, cell-based
HeLa [18] = assay: Induction of apoptosis in human HeLa cells assessed as cleaved caspase-9 expression at 50 to 200 nM after 24 hrs by Western blot analysis; assay type: functional, cell-based
MCF7 [19] = assay: Cytotoxicity activity against human MCF7 cells after 48 hrs by MTT assay; assay type: functional, cell-based; conditions: MCF7, 48 h
HeLa [20] = assay: Cell cycle arrest in human HeLa cells assessed as accumulation at S phase at 100 nM after 24 hrs by propidium iodide staining based flow cytometry; assay type: functional
[21] = target: RAC-alpha serine/threonine-protein kinase (Homo sapiens) (UniProt P31749); assay: Inhibition of AKT phosphorylation in human HeLa cells after 24 hrs by Western blot analysis; assay type: cell-based
HeLa [22] = assay: Induction of apoptosis in human HeLa cells assessed as necrotic cells at 500 nM after 24 hrs by Annexin-V-FITC/propidium iodide staining based flow cytometry (reference value: 0.031%); assay type: functional
[23] = target: MAP kinase p38 (Homo sapiens) (UniProt O15264+Q15759+Q16539+P53778); assay: Effect on p38 phosphorylation in human HeLa cells at 50 to 200 nM after 24 hrs by Western blot analysis; assay type: cell-based
HeLa [24] = assay: Induction of apoptosis in human HeLa cells assessed as necrotic cells at 200 nM after 24 hrs by Annexin-V-FITC/propidium iodide staining based flow cytometry (reference value: 0.031%); assay type: functional
HeLa [25] = assay: Inhibition of PI3K phosphorylation in human HeLa cells after 24 hrs by Western blot analysis; assay type: cell-based
HeLa [26] = assay: Induction of apoptosis in human HeLa cells assessed as late apoptotic cells at 100 nM after 24 hrs by Annexin-V-FITC/propidium iodide staining based flow cytometry (reference value: 11.1%); assay type: functional
HeLa [27] = assay: Induction of morphological changes in human HeLa cells assessed as impaired cell adhesion at 200 to 500 nM after 24 hrs by bright field microscopic analysis; assay type: functional, cell-based
HeLa [28] = assay: Induction of apoptosis in human HeLa cells assessed as necrotic cells at 100 nM after 24 hrs by Annexin-V-FITC/propidium iodide staining based flow cytometry (reference value: 0.031%); assay type: functional
HeLa [29] = assay: Cell cycle arrest in human HeLa cells assessed as accumulation at sub-G1 phase at 200 nM after 24 hrs by propidium iodide staining based flow cytometry; assay type: functional
HeLa [30] = assay: Induction of morphological changes in human HeLa cells assessed as formation of apoptotic bodies at 200 to 500 nM after 24 hrs by scanning electron microscopic analysis; assay type: functional, cell-based
HeLa [31] = assay: Down regulation of Bcl2 expression in human HeLa cells at 50 to 200 nM after 24 hrs by Western blot analysis; assay type: functional, cell-based
HeLa [32] = assay: Inhibition of colony formation in human HeLa cells at 50 nM after 24 hrs by crystal violet staining based microscopic analysis; assay type: functional, cell-based
HeLa [33] = assay: Induction of morphological changes in human HeLa cells assessed as wizened nucleus at 200 to 500 nM after 24 hrs by Hoechst 33342 staining based fluorescence microscopic analysis; assay type: functional, cell-based
HeLa [34] = assay: Antimigratory activity in human HeLa cells at 25 to 50 nM after 24 to 48 hrs by wound healing assay; assay type: functional, cell-based
L02 = assay: Cytotoxicity activity against human LO2 cells after 24 to 48 hrs by MTT assay; assay type: cell-based
HeLa [35] = assay: Induction of morphological changes in human HeLa cells assessed as cell shrinkage at 200 to 500 nM after 24 hrs by scanning electron microscopic analysis; assay type: functional, cell-based
HeLa [36] = assay: Cytotoxicity activity against human HeLa cells after 24 hrs by MTT assay; assay type: functional, cell-based
HeLa [37] = assay: Induction of apoptosis in human HeLa cells assessed as viable cells at 500 nM after 24 hrs by Annexin-V-FITC/propidium iodide staining based flow cytometry (reference value: 85.8%); assay type: functional; conditions: read-out: Activity
HeLa [38] = assay: Induction of apoptosis in human HeLa cells assessed as late apoptotic cells at 500 nM after 24 hrs by Annexin-V-FITC/propidium iodide staining based flow cytometry (reference value: 11.1%); assay type: functional
HeLa [39] = assay: Induction of double strand breaks in human HeLa cells assessed as increase in phospho-gammaH2AX expression at 50 to 200 nM after 24 hrs by Western blot analysis; assay type: functional, cell-based
HeLa [40] = assay: Down regulation of survivin expression in human HeLa cells at 50 to 200 nM after 24 hrs by Western blot analysis; assay type: functional, cell-based
HeLa [41] = assay: Induction of apoptosis in human HeLa cells assessed as cleaved caspase-7 expression at 50 to 200 nM after 24 hrs by Western blot analysis; assay type: functional, cell-based
MCF7 [42] = assay: Cytotoxicity activity against human MCF7 cells after 24 hrs by MTT assay; assay type: functional, cell-based; conditions: MCF7, 24 h
HeLa [43] = assay: Inhibition of colony formation in human HeLa cells assessed as reduction in colony size at 50 nM after 24 hrs by crystal violet staining based microscopic analysis; assay type: functional, cell-based
HeLa [44] = assay: Induction of apoptosis in human HeLa cells assessed as cleaved caspase-3 expression at 50 to 200 nM after 24 hrs by Western blot analysis; assay type: functional, cell-based
[45] = target: Ribosomal protein S6 kinase (Homo sapiens) (UniProt P51812+Q9UBS0+O75676+Q15349+O75582+P23443+Q9UK32+Q15418); assay: Inhibition of p70S6K phosphorylation in human HeLa cells after 24 hrs by Western blot analysis; assay type: cell-based
HeLa [46] = assay: Cell cycle arrest in human HeLa cells assessed as accumulation at S phase at 200 nM after 24 hrs by propidium iodide staining based flow cytometry relative to control; assay type: functional
HeLa [47] = assay: Induction of morphological changes in human HeLa cells assessed as increase in floating round cells at 200 to 500 nM after 24 hrs by bright field microscopic analysis; assay type: functional, cell-based
HeLa [48] = assay: Antiproliferative activity against human HeLa cells assessed as inhibition of cell proliferation at 100 to 200 nM after 24 hrs by Ki-67/Hoechst 33342 staining based fluorescence microscopic analysis; assay type: functional
HeLa [49] = assay: Induction of apoptosis in human HeLa cells assessed as viable cells at 100 nM after 24 hrs by Annexin-V-FITC/propidium iodide staining based flow cytometry (reference value: 85.8%); assay type: functional; conditions: read-out: Activity
HeLa [50] = assay: Induction of morphological changes in human HeLa cells assessed as cell shrinkage at 200 to 500 nM after 24 hrs by bright field microscopic analysis; assay type: functional, cell-based
[51] = target: Serine/threonine-protein kinase mTOR (Homo sapiens) (UniProt P42345); assay: Inhibition of mTOR phosphorylation in human HeLa cells after 24 hrs by Western blot analysis; assay type: cell-based
HeLa [52] = assay: Induction of apoptosis in human HeLa cells assessed as […] in cleaved PARP expression at 50 to 200 nM after 24 hrs by Western blot analysis; assay type: functional, cell-based
HepG2 [53] = assay: Cytotoxicity activity against human HepG2 cells after 24 hrs by MTT assay; assay type: functional, cell-based; conditions: HepG2, 24 h

Chain of RAC-alpha serine/threonine-protein kinase (Homo sapiens) (P31749 whole entry): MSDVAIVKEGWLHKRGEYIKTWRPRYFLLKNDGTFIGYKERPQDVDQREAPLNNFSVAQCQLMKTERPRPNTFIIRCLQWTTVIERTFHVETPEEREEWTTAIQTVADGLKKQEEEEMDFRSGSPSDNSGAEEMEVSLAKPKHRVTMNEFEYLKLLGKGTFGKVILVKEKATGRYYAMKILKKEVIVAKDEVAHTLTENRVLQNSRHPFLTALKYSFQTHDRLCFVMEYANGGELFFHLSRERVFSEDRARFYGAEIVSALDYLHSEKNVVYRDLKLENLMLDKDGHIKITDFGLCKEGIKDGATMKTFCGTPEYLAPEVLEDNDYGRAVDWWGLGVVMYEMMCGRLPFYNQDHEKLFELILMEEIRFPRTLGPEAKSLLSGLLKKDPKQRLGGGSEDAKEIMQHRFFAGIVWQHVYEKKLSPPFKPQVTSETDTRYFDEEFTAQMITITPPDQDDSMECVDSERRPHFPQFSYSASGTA
Chain of Mitogen-activated protein kinase; ERK1/ERK2 (Homo sapiens) (P27361 whole entry, looked up): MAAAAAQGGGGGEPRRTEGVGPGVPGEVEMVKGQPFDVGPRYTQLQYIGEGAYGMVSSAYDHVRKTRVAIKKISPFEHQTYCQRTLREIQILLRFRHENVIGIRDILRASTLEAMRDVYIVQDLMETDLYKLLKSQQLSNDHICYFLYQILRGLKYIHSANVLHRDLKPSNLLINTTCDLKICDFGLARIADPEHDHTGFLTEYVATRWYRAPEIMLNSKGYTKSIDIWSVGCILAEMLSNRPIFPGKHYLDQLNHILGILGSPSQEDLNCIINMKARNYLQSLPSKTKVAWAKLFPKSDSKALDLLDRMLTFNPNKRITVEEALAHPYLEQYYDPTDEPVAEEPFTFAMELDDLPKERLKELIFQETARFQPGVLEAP
Chain of Mitogen-activated protein kinase; ERK1/ERK2 (Homo sapiens) (P28482 whole entry, looked up): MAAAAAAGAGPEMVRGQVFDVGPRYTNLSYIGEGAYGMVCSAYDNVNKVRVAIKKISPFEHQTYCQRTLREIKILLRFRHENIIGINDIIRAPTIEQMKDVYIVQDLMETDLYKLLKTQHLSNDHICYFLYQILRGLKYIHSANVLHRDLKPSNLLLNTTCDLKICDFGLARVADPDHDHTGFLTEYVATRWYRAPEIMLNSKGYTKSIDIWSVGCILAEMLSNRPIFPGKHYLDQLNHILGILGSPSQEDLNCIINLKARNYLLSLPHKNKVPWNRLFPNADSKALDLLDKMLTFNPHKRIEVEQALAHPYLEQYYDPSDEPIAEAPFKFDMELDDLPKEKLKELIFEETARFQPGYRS

C[C@]12CC[C@H](O[C@@H]3C[C@H](CO)[C@@H](O)[C@H](O)[C@H]3O)C[C@@H]1CC[C@@H]1[C@@H]2CC[C@]2(C)[C@@H](c3ccc(=O)oc3)[C@@H](O)C[C@]12O
Activity (HeLa [1]): 36% | Activity (HeLa [2]): Active | Activity (HeLa [3]): Active | Activity (HeLa [4]): 8.67% | pIC50 (HepG2 [5]): 6.66 | inhibition (HeLa [6]): Active | Activity (HeLa [7]): Active | Activity (HeLa [8]): Active | inhibition [9]: Active | Activity (HeLa [10]): 10.2% | Activity [11]: Active | Activity (HeLa [12]): Active | Activity (HeLa [13]): Active | viability at 0.2 µM (HeLa [14]): 52.9% | Activity (HeLa [15]): Active | Activity (HeLa [16]): 38.3% | pIC50 (HeLa [17]): 6.80 | Activity (HeLa [18]): Active | pIC50 (MCF7 [19]): 6.62 | Activity (HeLa [20]): Active | inhibition [21]: Dose-dependent effect | Activity (HeLa [22]): 0.56% | Activity [23]: inactive | Activity (HeLa [24]): 0.1% | inhibition (HeLa [25]): Dose-dependent effect | Activity (HeLa [26]): 7.28% | Activity (HeLa [27]): Active | Activity (HeLa [28]): 0.062% | Activity (HeLa [29]): Active | Activity (HeLa [30]): Active | Activity (HeLa [31]): Active | inhibition (HeLa [32]): Active | Activity (HeLa [33]): Active | Activity (HeLa [34]): Active | Activity (L02): Non-Toxic | Activity (HeLa [35]): Active | pIC50 (HeLa [36]): 6.26 | viability at 0.5 µM (HeLa [37]): 46.9% | Activity (HeLa [38]): 16.6% | Activity (HeLa [39]): Active | Activity (HeLa [40]): Active | Activity (HeLa [41]): Active | pIC50 (MCF7 [42]): 5.99 | inhibition (HeLa [43]): Active | Activity (HeLa [44]): Active | inhibition [45]: Dose-dependent effect | Activity (HeLa [46]): 73% | Activity (HeLa [47]): Active | inhibition (HeLa [48]): Active | viability at 0.1 µM (HeLa [49]): 82.5% | Activity (HeLa [50]): Active | inhibition [51]: Dose-dependent effect | Activity (HeLa [52]): Active | pIC50 (HepG2 [53]): 5.85

C[C@]12CC[C@H](O)C[C@H]1CC[C@@H]1[C@@H]2CC[C@]2(C)[C@@H](c3ccc(=O)oc3)CC[C@]12O [BUFALIN]
Activity (HeLa [4]): 13.9% | viability at 0.2 µM (HeLa [14]): 53.3% | Activity (HeLa [16]): 30.9% | pIC50 (HeLa [17]): 6.55 | Activity (HeLa [24]): 1.86% | pIC50 (HeLa [36]): 6.23
